Assay: Nonclinical safety: single-dose and repeated-dose toxicological studies
Assay type: in vivo, rodent and non-rodent species
Settings: species not specified

CC(C)c1cnn2c(N[C@@H]3CCc4[nH]c5ccccc5c4C3)nc(-c3cncc(F)c3)nc12 [Compound A, (R)—N-(2-(5-fluoropyridin-3-yl)-8-isopropylpyrazolo[1,5-a][1,3,5]triazin-4-yl)-2,3,4,9-tetrahydro-1H-carbazol-3-amine]
noteworthy findings: emesis, loose stool, dehydration, body weight loss

— patent US20240148740A1, “COMBINATION OF AN AHR INHIBITOR WITH A PDX INHIBITOR OR DOXORUBICINE” (Ikena Oncology, Inc., priority 2020, published 2024)
